From patent US10130684B2, “Oral dissolving films for insulin administration, for treating diabetes” (PHARMEDICA LTD., priority 2011, dated 2018)

Test system: cultured human buccal tissue (EpiOral)
Experiment: In vitro buccal tissue permeation of insulin solutions with permeation enhancers
Type: in vitro ADME
Source text: To enable in vitro study of insulin release, the films were applied onto EpiOral tissues (MatTek) according to the Drug Absorption Protocol (ORL-202 & ORL-606), incorporated herein by reference. EpiOral tissues consist of normal, human-derived epithelial cells, which have been cultured to form multilayered, highly differentiated models of the human buccal phenotypes. EpiOral is a multilayered tissue consisting of an organized basal layer and multiple non-cornified layers analog to native human buccal tissue.
Insulin solution (0.60 mg/mL) was prepared in phosphate buffer (pH 6.8) solution (PBS). The above mentioned potential permeation enhancers were dissolved in the insulin solution to make solutions with desired ratios given in the table below:
Briefly, experiments were conducted in 37° C. incubator with 0.9 mL of PBS in receptor. 3.5 mL of donor solutions (n=4 for each formulation) were placed in the donor compartments. […] were collected from the receptor at time periods of 0.5, 1.0, 2.0, 3.0, 4.0 and 6.0 h, and were later assayed using HPLC.

polyoxyethylene (35) lauryl ether [Brij 35]
increase of insulin release compared to the control (without a permeation enhancer) (Brij 35 as permeation enhancer): about 5 times | permeation effectiveness for insulin among the 3 tested compounds (Brij 58, Brij 35, sodium glycocholate compared): highest permeation effectiveness
